According to PubChem BioAssay AID248 (DTP/NCI, 2004):
Values joined by “and” are separate entries in the source; they are usually repeats but may differ in a detail not shown here. Equal entries are not always repeated. Inconclusive results and toxic doses are left out. Rule as the data show it: active = T/C of 150% or more; inactive = T/C below 125%.

Test system: L1210 leukemia ip in BDF1 mice, survival T/C
Test: NCI In Vivo Anticancer Drug Screen. Data for tumor model L1210 Leukemia (intraperitoneal) in B6D2F1 (BDF1) mice
Conditions: endpoint: mean survival time, higher = longer survival
Outline: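 Transplanted-tumor mice were given test agent; controls received vehicle only. Survival readings from the two groups were divided (treated over control).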

[1] = dose: 100.0 mg/kg/injection, schedule: Q01DX001 (ip), vehicle: carboxymethylcellulose (CMC)
[2] = dose: 100.0 mg/kg/injection, schedule: Q01DX001 (ip), vehicle: Klucel (hydroxypropylcellulose) (HPC)
[3] = dose: 100.0 mg/kg/injection, schedule: Q04DX003 (ip), vehicle: Klucel (hydroxypropylcellulose) (HPC)
[4] = dose: 200.0 mg/kg/injection, schedule: Q01DX001 (ip), vehicle: Klucel (hydroxypropylcellulose) (HPC)
[5] = dose: 200.0 mg/kg/injection, schedule: Q04DX003 (ip), vehicle: Klucel (hydroxypropylcellulose) (HPC)
[6] = dose: 400.0 mg/kg/injection, schedule: Q01DX001 (ip), vehicle: Klucel (hydroxypropylcellulose) (HPC)
[7] = dose: 100.0 mg/kg/injection, schedule: Q01DX009 (ip), vehicle: Klucel (hydroxypropylcellulose) (HPC)
[8] = dose: 200.0 mg/kg/injection, schedule: Q01DX009 (ip), vehicle: Klucel (hydroxypropylcellulose) (HPC)

Measured: T/C

O=C1NC(=O)C2C3OC(C(Cl)C3Cl)C12 (configuration not stated)
inactive: dose: 12.5 mg/kg/injection, schedule: Q04DX002 (ip), vehicle: Klucel (hydroxypropylcellulose) (HPC) 98 % of control | dose: 25.0 mg/kg/injection, schedule: Q01DX009 (ip), vehicle: Klucel (hydroxypropylcellulose) (HPC) 97 % of control | dose: 25.0 mg/kg/injection, schedule: Q04DX002 (ip), vehicle: Klucel (hydroxypropylcellulose) (HPC) 102 % of control | dose: 50.0 mg/kg/injection, schedule: Q01DX009 (ip), vehicle: Klucel (hydroxypropylcellulose) (HPC) 107 % of control | dose: 50.0 mg/kg/injection, schedule: Q04DX002 (ip), vehicle: Klucel (hydroxypropylcellulose) (HPC) 98 % of control | dose: 75.0 mg/kg/injection, schedule: Q01DX009 (ip), vehicle: Klucel (hydroxypropylcellulose) (HPC) 96 % of control | dose: 75.0 mg/kg/injection, schedule: Q01DX009 (ip), vehicle: carboxymethylcellulose (CMC) 100 % of control

CCOC(=O)C(Cc1csc2ccccc12)(NC(C)=O)C(=O)OCC
inactive: dose: 44.4 mg/kg/injection, schedule: Q01DX001 (ip), vehicle: carboxymethylcellulose (CMC) 93 % of control and 94 % of control | dose: 66.7 mg/kg/injection, schedule: Q01DX001 (ip), vehicle: carboxymethylcellulose (CMC) 93 % of control and 94 % of control | [1] 94 % of control and 98 % of control | dose: 150.0 mg/kg/injection, schedule: Q01DX001 (ip), vehicle: carboxymethylcellulose (CMC) 101 % of control and 91 % of control

CC1Oc2ccccc2OC1NC1=NCCO1 (configuration not stated)
inactive: [2] 97 % of control | [3] 100 % of control | [4] 103 % of control | [5] 100 % of control | [6] 102 % of control | dose: 400.0 mg/kg/injection, schedule: Q04DX003 (ip), vehicle: Klucel (hydroxypropylcellulose) (HPC) 108 % of control

CCc1ccccc1NC(=O)Nc1ccc(C(=O)O)cc1
inactive: [7] 98 % of control | [8] 94 % of control

Nc1ncnc(N)n1
inactive: dose: 50.0 mg/kg/injection, schedule: Q01DX001 (ip), vehicle: carboxymethylcellulose (CMC) 98 % of control | [1] 101 % of control | dose: 200.0 mg/kg/injection, schedule: Q01DX001 (ip), vehicle: carboxymethylcellulose (CMC) 101 % of control

COc1ccc(/C=N/NC(=S)Nc2ccccc2)cc1OC
inactive: [7] 94 % of control and 100 % of control | [8] 89 % of control | dose: 400.0 mg/kg/injection, schedule: Q01DX009 (ip), vehicle: Klucel (hydroxypropylcellulose) (HPC) 96 % of control and 86 % of control

O=[N+]([O-])c1ccc(-c2ccc([N+](=O)[O-])cc2)cc1
inactive: dose: 100.0 mg/kg/injection, schedule: Q04DX002 (ip), vehicle: Klucel (hydroxypropylcellulose) (HPC) 98 % of control | dose: 200.0 mg/kg/injection, schedule: Q04DX002 (ip), vehicle: Klucel (hydroxypropylcellulose) (HPC) 124 % of control | dose: 400.0 mg/kg/injection, schedule: Q04DX002 (ip), vehicle: Klucel (hydroxypropylcellulose) (HPC) 95 % of control

Nc1ccc(C2=NCCO2)cc1
inactive: [2] 92 % of control | [4] 103 % of control | [6] 96 % of control

CCCCCCCCCCCCCCCCNC(=S)Nc1ccc(C(=O)O)cc1
inactive: dose: 12.0 mg/kg/injection, schedule: Q04DX003 (ip), vehicle: Klucel (hydroxypropylcellulose) (HPC) 94 % of control | dose: 25.0 mg/kg/injection, schedule: Q04DX003 (ip), vehicle: Klucel (hydroxypropylcellulose) (HPC) 104 % of control | dose: 50.0 mg/kg/injection, schedule: Q04DX003 (ip), vehicle: Klucel (hydroxypropylcellulose) (HPC) 102 % of control | [2] 95 % of control | [3] 96 % of control | [4] 101 % of control | [5] 93 % of control | [6] 105 % of control

Cc1cc(C)c2cc(C=O)cc-2c(C)c1
inactive: dose: 100.0 mg/kg/injection, schedule: Q04DX003 (ip), vehicle: saline with Tween-80 103 % of control | dose: 200.0 mg/kg/injection, schedule: Q04DX003 (ip), vehicle: saline with Tween-80 94 % of control | dose: 400.0 mg/kg/injection, schedule: Q04DX003 (ip), vehicle: saline with Tween-80 93 % of control
